These results are taken from US8828993B2, “Psychotropic agents having glutamate NMDA activity” (Ramot At Tel-Aviv University Ltd., priority 2006, dated 2014).

“Also recorded” adds a separate entry of the source. Counter-ions that a name gives are not always drawn.

What all share (format): in vivo
Experiment [1] deals with mice. Put plainly: Open field exploratory locomotor activity. The conditions noted are these: for sedative effect: mice, i.p. From the text: Open Field Exploratory Locomotor Activity
The procedure consists of subjecting an animal, usually a rodent, to an unknown large environment from which escape is prevented by surrounding walls. The open field test is now one of the most popular procedures in animal psychology (Crawley, et al., Exploratory behavior models of anxiety in mice, Neurosci Biobehav Rev 9 (1985), pp. 37-44). The procedure involves forced confrontation of a rodent with the situation. The animal is placed in the center or close to the walls of the apparatus and the following behavioral items are recorded for a period ranging from 5 to 20 minutes: horizontal locomotion, and frequency of rearing or leaning. In such a situation, rodents spontaneously prefer the periphery of the apparatus to activity in the central parts of the open field. Increase in time spent in the central part as well as of the ratio central/total locomotion or decrease of the latency to enter the central part are indications of anxiolysis.
In a typical test, an individual mouse was placed in a novel environment of a square open field (50×50 cm), the floor of which had been divided into 3 areas, as shown below. The area within 10 cm of the chamber walls was termed the periphery. […] One hour after drug administration, the animal was placed in the same corner of the field. The animal behavior in the open field was recorded by videotaping for 20-60 minutes and analyzed subsequently digitally using the Noldus software for animal behavior. The measurements included velocity, distance moved, frequency of visits to the central area, number of rearing events.
The effect of Compound 1 on the behavior of mice in the open field and the dose-dependent effect following i.p administration were evaluated. Naïve male Mice (Balb/c, Harlan Israel) were used. The animals, divided 3 to 5 animals per group, were administered with Compound 1 (12.5, 25, 50, 75 and 100 mg/kg) 1 hr prior to placing each in an open field. Mice were monitored for 1 hr (every 5 minutes) using the Noldus system, and their distance moved, velocity, time of immobility and number of rearings was recorded.
The effect of Compound 6 on the behavior of mice in the open field was also examined. Naïve male mice (Balb/c, Harlan Israel) were used. Animals (6 per group) were administered with Compound 6 (12.5, 25 and 50 mg/kg, i.p.) 1 hr prior to placing each in the open field. Mice were followed for 1 hr (every 5 minutes) using the Noldus system, and their distance moved, velocity, time of immobility and number of rearings was recorded.
The effect of oral administration of Compound 1 in the open field was tested by orally administering to male ICR mice varying amounts of Compound 1 (5, 10 and 20 mg/kg) or vehicle. Animals were placed in the open field 1 hr after drug administration and horizontal and vertical behavior was recorded for 20 minutes.
The dose-dependent effect of Compound 3 administered i.p. in the open field was also tested. Naïve male mice (Balb/c, Harlan Israel) were used. Animals were administered with Compound 3 (12.5, 25 and 50 mg/kg, i.p., 6 per group) 1 hr prior to placing each in the open field. Mice were followed for 1 hr (every 5 minutes) using the Noldus system, and their distance moved, velocity, time of immobility and number of rearings was recorded.
Animals were administered orally with Compound 1 (5, 10 and 20 mg/kg) or with a vehicle. Animals were placed in the open field 1 hr after drug administration and animal track was registered for 20 minutes. The time spent in the center (zone 3) and the frequency to the center were indicators of anxiety.

Experiment [2] relates to mice. Kind of experiment: Elevated plus maze. From the text:
The elevated plus maze is a widely used method to test anxiety in rodents (Pellow, et al., Pharmacol. Biochem. Behav., 24, 525-529 (1986)). The apparatus was made of wood and painted black, with two opposing open arms and two opposite enclosed arms of the same size. The arms were attached to a central square shaped in a plus sign. The whole apparatus was placed 50 cm above the floor. Anxious animals refrain from entering the open arm and prefer the closed arm.
In a typical experiment, Balb/c male mice were administered orally with 10 and 20 mg/kg of Compound 1 or Compound 6 and with a vehicle or with diazepam (1 mg/kg) administered per os (p.o.) 90 minutes before they were placed in the center of the maze. The frequency to the open aims, the time spent in the different arms, the velocity and number of rearings of the animals in each zone were recorded (Noldus).
Male Balb/c mice were used. Animals were transferred to the behavior room 24 hr before the experiment. Compound 1 or diazepam were administered orally 90 minutes before testing. Each treatment group included 5 animals.
Male Balb/c mice were used. Animals were transferred to the behavior room 24 hr before the experiment. Compound 6 (3, 9, or 27 mg/kg) or vehicle were administered orally 90 minutes before testing. Each treatment group included 5 animals.

The test system of experiment [3] is MK-801-induced hyperactivity in mice. Kind of experiment: MK-801-induced hyperactivity in open field. The method, then: MK-801-Induced Stereotype Behavior in Rats (in Open Field)—
MK-801 is an analogue of PCP which inhibits NMDA receptors and elicits hyperlocomotion and stereotypic behavior in rodents and is used as an animal model of schizophrenia (Stephen, et al., Topiramate antagonizes MK-801 in an animal model of schizophrenia, Eur. J. Pharmacol. 449, 2002, 121-5). For experimentation, naïve Balb/c mice were used. MK-801 (0.15 mg/kg i.p) was administered 40 minutes after Compound 1 (or any one of the other compounds of the invention) or a vehicle, and 20 minutes prior to placing the mouse in an open field.
Animals placed in the open field were followed for 60 minutes and their distance moved, velocity, duration of immobility, and number of rearing events were registered using the Noldus system.
As stated above, MK-801 inhibits NMDA receptors and elicits hyperlocomotion. Therefore, where an antagonism of the hyperactivity-induced by the MK-801 is observed upon administration of a compound of the invention, it is an indication as to the positive modulation of the NMDA activity. In other words, such a compound may be considered as useful in the treatment of schizophrenia.
The effect of Compound 6 on the distance moved in Balb/c mice exposed to MK-801 ([…]) i.p. and to Compound 6 (up to 12.5 mg/kg, i.p.) administered 1 hr prior to MK-801 was also tested.
As stated above, MK-801 (an NMDA receptor antagonist) is a widely accepted animal model for schizophrenia. The experiment was conducted with Balb/c male mice (Harlan Il), 6 per group. Compound 1 (50 mg/kg) was administered i.p. (1 hr before experimentation), to mice alone or combined with MK-801 (0.15 mg/kg, i.p.) administered 20 minutes prior to placing the mice individually in an open field for 60 minutes. The hyper-active behavior expressed by hyperlocomotion, velocity, strong mobility, number of rearing was evaluated using the Noldus system, each point represents the mean+/−6 determinations.

Where [4] appears, read: male ICR mice, oral 10 and 20 mg/kg, 1 hr after administration, 20 minutes.
[5] abbreviates: male Balb/c mice, 20 mg/kg oral.
Where [6] appears, read: male Balb/c mice, oral, diazepam 1 mg/kg.
The mark [7] stands for this setting: Balb/c mice, 12.5, 25 and 50 mg/kg i.p.

Take `COC(=O)C(N)CN1CCN(C2=Nc3ccccc3Nc3sc(C)cc32)CC1` (stereo not drawn) [Compound 1, 2-amino-3-[4-(2-methyl-10H-thieno[2,3-b][1,5]benzodiazepin-4-yl)-piperazin-1-yl]-propionic acid, methyl ester hydrochloride salt]: in experiment [1] (Balb/c mice, 12.5 mg/kg i.p.), the “horizontal and vertical motility parameters” value was “did not modify significantly”; the rearing frequency entry is listed as “tended to increase”. The “sedative effect / motility” value in experiment [1] (Balb/c mice, doses higher than 50 mg/kg i.p.) is given as “marked sedative effect”. Besides, the “horizontal and vertical motility” value in experiment [1] (Balb/c mice, doses up to 50 mg/kg i.p.) is “mild inhibition”. Moreover, the “horizontal and vertical motility” value in experiment [1] (Balb/c mice, i.p. 12.5, 25, 50, 75 and 100 mg/kg, 1 hr prior, monitored 1 hr) is listed as “dose dependent decrease”. Moreover, in experiment [1] (male ICR mice, 20 mg/kg p.o., 1 hr before, 20 minutes), the “anxiety parameters (time spent in the center and frequency to the center)” value is “anxiolytic activity”. In experiment [1] (setting [4]), the “horizontal behavior (velocity and distance moved)” value was “slightly decreased”; the “vertical behavior (number of rearings)” value is reported as “increased”. The sedative effect result in experiment [1] was “mild sedative effect”. Besides, the “anxiolytic activity (overall conclusion)” value in experiment [2] (20 mg/kg) is reported as “anxiolytic activity which resembles diazepam”. Moreover, in experiment [2] (setting [5]), the “time spent in the center” value is recorded as “increased”; the “time spent in the closed and the open arm” value is “did not significantly affect”. For the same compound, the “frequency to the open arm and the center” value in experiment [2] (male Balb/c mice, 20 mg/kg oral, 90 minutes before testing) is listed as “frequented significantly more”. In experiment [2] (setting [6]), the “number of rearings in the open arm” value is recorded as “increased number of rearings” and the velocity entry is “not”. For the same compound, in experiment [3] (Balb/c male mice, 50 mg/kg i.p.), the “vertical motility (number of rearings), compound alone” value is listed as “markedly suppressed”. Besides, the “inhibition of rearings presented by MK-801” value in experiment [3] (Balb/c male mice, 50 mg/kg i.p. combined with MK-801 0.15 mg/kg i.p.) is “increased”. Besides, the “basal and MK-801-induced stimulation of horizontal motility (distance moved, velocity, strong mobility)” value in experiment [3] (Balb/c male mice, 50 mg/kg i.p., MK-801 0.15 mg/kg i.p., open field 60 minutes) is on record as “clear cut decrease”. In experiment [3] (mice, 30 and 50 mg/kg i.p.), the “hyperlocomotion effect of MK-801” value is “inhibited in a dose related manner”; the “increased frequency to the center of animals treated with MK-801” value is on record as “did not modify”; the “time spent in the center (zone 3), MK-801 treated” value is recorded as “increased”.
For `CNC(CN1CCN(C2=Nc3ccccc3Nc3sc(C)cc32)CC1)C(=O)OC` (stereo not drawn) [Compound 6, 2-N-methylamino-3-[4-(2-methyl-10H-thieno[2,3-b][1.5]benzodiazepin-4-yl)-piperazin-1-yl]propionic acid, methyl ester trihydrochloride salt], in experiment [1] (setting [7]), the “duration of “not moving” periods” value is given as “increased”; the “horizontal (distance) and vertical motility (number of rearings)” value is given as “inhibition”. The “motility (distance moved and velocity)” value in experiment [1] (Balb/c mice, 12.5, 25 and 50 mg/kg i.p., 1 hr prior) was “dose dependent decrease”. Besides, the “effect on motility (distance moved and velocity)” value in experiment [1] (Balb/c mice, up to 50 mg/kg i.p.) is “mild”. The sedative effect entry in experiment [1] is reported as “mild sedative effect”. Moreover, in experiment [2] (male Balb/c mice, 3, 9 and 27 mg/kg orally), the “time spent in the closed arm” value is listed as “did not significantly affect”. For the same compound, in experiment [2] (male Balb/c mice, 3, 9 and 27 mg/kg orally, 90 minutes before testing, trihydrochloride salt), the “time spent in the open arms” value was “more time; also recorded: dose-dependently increase”. Further, in experiment [2] (male Balb/c mice, 3, 9 and 27 mg/kg orally, trihydrochloride salt), the “time spent in the center” value was “less and decrease”. In addition, in experiment [3] (Balb/c mice, up to 12.5 mg/kg i.p. 1 hr prior to MK-801 (15 mg/kg) i.p.), the “motility (distance moved) of MK-801 treated mice” value was “did not cause a consistent dose dependent effect”.
